Laboratory results published in patent US7094869B2, “Low molecular weight peptidomimetic growth hormone secretagogues” (Genentech, Inc., priority 1994, dated 2006).

Assays:
ACTH = ACTH release from pituitary cells (RIA); format: cell-based, rat; settings: 100 nM
Description: Dispersion: Adult female Sprague-Dawley (160-180 g., Charles River) rats were group-caged in a 12:12 light:dark cycle with food and water available ad libitum. Pituitaries from ten rats were removed, the posterior pituitary discarded and the anterior pituitary placed in Hanks' Balanced Salt Solution (HBSS: without calcium chloride, w/o magnesium chloride, w/o magnesium sulfate; Gibco) containing 20 mM HEPES (Gibco) and 100 U/ml penicillin streptomycin (PS: JRH Biosciences). Under sterile conditions, pituitaries were rinsed twice then minced into small fragments with a razor blade. Fragments were resuspended in 5 ml of HBSS/HEPES containing 20 mg collagenase (Serva 17449) and […] of 1 mg/ml DNase (Sigma) for a 40 min. incubation in a 37° C. gyrotory water bath shaker (New Brunswick Scientific Model G76; setting 10). After the incubation, fragments were triturated to yield small clumps and single cells. The cells were centrifuged 1000× g for 5 min, resuspended, counted and plated at a final cell concentration of 100,000 cells/ml. Incubation media was DME low glucose media w/NaHCO3 (Gibco) containing 20 mM hepes, 100 U/ml PS and 10% FBS (Hyclone A-111-L). Cells were plated at 0.5 ml per well in 48 well plates (Falcon) and incubated at 37° C. in 5% C02 for three days. For challenges to determine release of other pituitary hormones cells were plated at 200,000 cells per ml with 2 ml per well of a Swell plate (Corning). Challenge: A (inip)bbFK-NH2 stock (or other GHRP) concentration of 1 mM was made in DMSO and diluted with warmed media approximately 30 min prior to use. The highest concentration of DMSO in media was 0.1%. […] STATISTICS: The mean for each group was determined and analyzed by one-way analysis of variance with a post-hoc Student-Newman-Keuls. […] The EC50 was calculated using a 4-parameter curve-fit program (Kaleidagraph). […] RIA of pituitary hormones: LH, FSH, TSH, and Prolactin were determined with commercially available kits from Amersham, and ACTH levels were determined by a RIA kit from ICN. […]

[1] = Combination GHRP and IGF-1 treatment of obese Zucker Diabetic Fatty (ZDF) rats; format: in vivo, rat
Description: Ten lean ZDF rats served as an additional control group.
This GHRP was given by sc. injection twice daily, each dose of 100 μl therefore containing 50 μg/injection or 100 μg/day.
Recombinant human IGF-1 (rhIGF-1) at 13.8 mg/ml in acetate buffer was loaded into osmotic minipumps (Alza, Palo Alto, model 2ML4, pump rate 2.29 μl/hr for 28 days, fill volume 2064 μl). Other pumps were filled with acetate buffer. […] The delivered dose of rhIGF-1 was therefore 758 μg/day. Recombinant human growth hormone (rhGH, Lot R9092AX, Genentech Inc.) was diluted in sterile water to 2.5 g/l and a 100 μl injection given twice daily (250 μg/injection, or 500 μg/day).
The next day the osmotic pumps were inserted into rats. […] All rats not receiving rhIGF-1 containing pumps were implanted with pumps delivering the acetate buffer excipient.
On day 24 blood was withdrawn after a 4 hour fast and 1.5 U/kg of regular insulin was injected i.p. and a second blood sample taken 30 minutes later. The rats were then sacrificed using carbon dioxide, bled from the heart, and organs taken. Serum glucose was measured by standard automated procedures.
Data are presented as mean±standard error (SE) of the mean with 8 rats per group.

Structure (SMILES): NCCCC[C@H](NC(=O)[C@H](Cc1ccccc1)NC(=O)[C@@H](Cc1ccc2ccccc2c1)NC(=O)[C@@H](Cc1ccc2ccccc2c1)NC(=O)C1CCNCC1)C(N)=O [(inip) b b F K amide, (inip)-DβNal-DβNal-Phe-Lys-amide]
- ACTH release (ACTH; listed as (inip)-bbFK-NH2): unchanged
- ACTH release (ACTH; listed as (inip)bbFK-NH2): no significant change
- body weight gain ([1]; Day 2, obese ZDF male rats, GHRP 100 μg/d sc injection, rhIGF-1 758 μg/d pump, rhGH 500 μg/d): 18.3 ± 1.0 g
- effect on insulin sensitivity (diabetogenic effect) ([1]; rat, in vivo): greatly reduced effect on insulin sensitivity (diabetogenic effect) than rhGH
- fasting blood glucose ([1]; rat, in vivo): 386±63 mg %
- serum insulin ([1]; rat, in vivo): 39 ± 6 ng/mL
